From patent US8614214B2, “Pyrazole amide compounds and uses thereof” (Sinochem Corporation, priority 2010, dated 2013) come the findings set out here.

For the first data set, the system named is rice blast.
Assay: not given
The class given is cell-based. The conditions noted are these: 25 ppm.
Regarding `CCOC(=O)c1ccccc1NC(=O)COc1ccc(CNC(=O)c2c(Cl)c(C)nn2C)cc1` [Compound 95], the “inhibition ratio on spore germination of rice blast” value (“inhibition ratio” for short) amounted to 100%.
Still for that read-out and setting: to `CNC(=O)c1ccccc1NC(=O)COc1ccc(CNC(=O)c2cc(C)nn2C)cc1` [Compound 2] belongs 100%.
In the case of `CCNC(=O)c1cccc(C)c1NC(=O)COc1ccc(CNC(=O)c2cc(C)nn2C)cc1` [Compound 177], the “inhibition ratio” value came to 100%.
Still for that read-out and setting: with `CCc1cc(C(=O)NCc2ccc(OCC(=O)Nc3ccccc3C(=O)NC)cc2)n(C)n1` [Compound 3] the figure was 100%.

Staying with this data set, now noted: 25 ppm; in vitro.
As to `CCc1nn(C)c(C(=O)NCc2ccc(OCC(=O)Nc3ccccc3C(=O)NC)cc2)c1Cl` [Compound 16], the “inhibition ratio” value was determined as 100%.

In the next data set the test system is corn rust. As to the kind of experiment: Greenhouse pot seedling assay, corn rust. The following applies: 400 ppm. In kind it is in vivo.
For `CCc1cc(C(=O)NCc2ccc(OCC(=O)Nc3ccccc3C(=O)NC)cc2)n(C)n1` [Compound 3], the “control of corn rust” value is listed as 100%.

Staying with this data set, now noted: 400 ppm; greenhouse.
As to `CCOC(=O)c1ccccc1NC(=O)COc1ccc(CNC(=O)c2c(Cl)c(C)nn2C)cc1` [Compound 95], the “control of corn rust” value turned out to be 100%.
Still for that read-out and setting: with `CCc1nn(C)c(C(=O)NCc2ccc(OCC(=O)Nc3ccccc3C(=O)NC)cc2)c1Cl` [Compound 16] the figure was 100%.
As to `CNC(=O)c1ccccc1NC(=O)COc1ccc(CNC(=O)c2cc(C)nn2C)cc1` [Compound 2], the “control of corn rust” value came to 100%.
Same read-out and setting: to `CCNC(=O)c1cccc(C)c1NC(=O)COc1ccc(CNC(=O)c2cc(C)nn2C)cc1` [Compound 177] belongs 100%.

Staying with this data set, now noted: Zea mays, 192 h; 400 ppm; Table 21; read-out: Biological activity in greenhouse, corn rust.
Regarding `COC(=O)c1ccccc1NC(=O)C(C)Cl` (centres unmarked) [VI-56], the pest or weed control at 400 ppm was 30%.
On the same count and under the same terms, to `Cc1nn(C)c(C(=O)NCc2ccc(O)cc2)c1Cl` [VIII-1] belongs 50%.
Still for that read-out and setting: with `CNC(=O)c1ccccc1NC(=O)C(C)Cl` (centres unmarked) [VI-54] the figure was 0%.
Turning to `CNC(=O)c1ccccc1NC(=O)CCl` [VI-1, 2-(2-chloroacetamido)-N-methylbenzamide], the pest or weed control at 400 ppm was determined as 0%.
On the same count and under the same terms, with `COC(=O)c1ccccc1NC(=O)CCl` [VI-20] the figure was 0%; with `CNC(=O)c1ccccc1NC(=O)COc1ccc(CN)cc1` [II-1, 2-(2-(4-(aminomethyl)phenoxy)acetamido)-N-methylbenzamide], 0%.
Same read-out and setting: with `Cc1nn(C)c(C(=O)NCCc2ccc(O)cc2)c1Cl` [VIII-138] the figure was 0%; with `CCc1nn(C)c(C(=O)NCCc2ccc(O)cc2)c1Cl` [VIII-139], 0%.

For a further data set, the system named is cucumber downy mildew. As to the kind of experiment: Greenhouse pot seedling assay, cucumber downy mildew. The class given is in vivo. The conditions noted are these: 25 ppm.
For `CCc1cc(C(=O)NCc2ccc(OCC(=O)Nc3ccccc3C(=O)NC)cc2)n(C)n1` [Compound 3], the “control of cucumber downy mildew” value was found to be 95%.

The same data set, now with this note: 25 ppm; greenhouse.
Turning to `CCc1nn(C)c(C(=O)NCc2ccc(OCC(=O)Nc3ccccc3C(=O)NC)cc2)c1Cl` [Compound 16], the “control of cucumber downy mildew” value amounted to 100%.
Same read-out and setting: to `CNC(=O)c1ccccc1NC(=O)COc1ccc(CNC(=O)c2cc(C)nn2C)cc1` [Compound 2] belongs 75%.
The same measure, in the same setting: to `CCNC(=O)c1cccc(C)c1NC(=O)COc1ccc(CNC(=O)c2cc(C)nn2C)cc1` [Compound 177] belongs 100%.

The same data set, now with this note: 50 ppm.
Regarding `CCc1cc(C(=O)NCc2ccc(OCC(=O)Nc3ccccc3C(=O)NC)cc2)n(C)n1` [Compound 3], the “control of cucumber downy mildew” value turned out to be 100%.

The data set is the same for the next values; noted with them: 50 ppm; greenhouse.
Consider `CCc1nn(C)c(C(=O)NCc2ccc(OCC(=O)Nc3ccccc3C(=O)NC)cc2)c1Cl` [Compound 16], for which the “control of cucumber downy mildew” value is recorded as 100%.
Regarding `CNC(=O)c1ccccc1NC(=O)COc1ccc(CNC(=O)c2cc(C)nn2C)cc1` [Compound 2], the “control of cucumber downy mildew” value worked out at 100%.
On to `CCNC(=O)c1cccc(C)c1NC(=O)COc1ccc(CNC(=O)c2cc(C)nn2C)cc1` [Compound 177], for which the “control of cucumber downy mildew” value is listed as 100%.

The data set is the same for the next values; noted with them: 400 ppm.
Consider `CCc1cc(C(=O)NCc2ccc(OCC(=O)Nc3ccccc3C(=O)NC)cc2)n(C)n1` [Compound 3], for which the “control of cucumber downy mildew” value was 100%.

The same data set, now with this note: 400 ppm; greenhouse.
`CCc1nn(C)c(C(=O)NCc2ccc(OCC(=O)Nc3ccccc3C(=O)NC)cc2)c1Cl` [Compound 16]: the “control of cucumber downy mildew” value is reported as 100%.
Still for that read-out and setting: with `CNC(=O)c1ccccc1NC(=O)COc1ccc(CNC(=O)c2cc(C)nn2C)cc1` [Compound 2] the figure was 100%; with `CCNC(=O)c1cccc(C)c1NC(=O)COc1ccc(CNC(=O)c2cc(C)nn2C)cc1` [Compound 177], 100%.

Still in this data set, the particulars now being: Cucumis sativus, 120 h; 400 ppm; Table 21; read-out: Biological activity in greenhouse, cucumber downy mildew.
With `COC(=O)c1ccccc1NC(=O)C(C)Cl` (centres unmarked) [VI-56], the pest or weed control at 400 ppm came to 75%.
As to `Cc1nn(C)c(C(=O)NCc2ccc(O)cc2)c1Cl` [VIII-1], the pest or weed control at 400 ppm is 95%.
Same read-out and setting: with `CNC(=O)c1ccccc1NC(=O)C(C)Cl` (centres unmarked) [VI-54] the figure was 30%; with `CNC(=O)c1ccccc1NC(=O)CCl` [VI-1, 2-(2-chloroacetamido)-N-methylbenzamide], 0%; with `COC(=O)c1ccccc1NC(=O)CCl` [VI-20], 0%.
In the case of `CNC(=O)c1ccccc1NC(=O)COc1ccc(CN)cc1` [II-1, 2-(2-(4-(aminomethyl)phenoxy)acetamido)-N-methylbenzamide], the pest or weed control at 400 ppm came out at 0%.
Still for that read-out and setting: to `Cc1nn(C)c(C(=O)NCCc2ccc(O)cc2)c1Cl` [VIII-138] belongs 0%.
With `CCc1nn(C)c(C(=O)NCCc2ccc(O)cc2)c1Cl` [VIII-139], the pest or weed control at 400 ppm amounted to 0%.

The next data set deals with wheat powdery mildew. Kind of data set: Greenhouse pot seedling assay, wheat powdery mildew. In kind it is in vivo. The conditions noted are these: 400 ppm.
`CCc1cc(C(=O)NCc2ccc(OCC(=O)Nc3ccccc3C(=O)NC)cc2)n(C)n1` [Compound 3]: the “control of wheat powdery mildew” value turned out to be 100%.

Staying with this data set, now noted: 400 ppm; greenhouse.
Regarding `CCc1nn(C)c(C(=O)NCc2ccc(OCC(=O)Nc3ccccc3C(=O)NC)cc2)c1Cl` [Compound 16], the “control of wheat powdery mildew” value is on record as 100%.
Still for that read-out and setting: with `CNC(=O)c1ccccc1NC(=O)COc1ccc(CNC(=O)c2cc(C)nn2C)cc1` [Compound 2] the figure was 100%; with `CCNC(=O)c1cccc(C)c1NC(=O)COc1ccc(CNC(=O)c2cc(C)nn2C)cc1` [Compound 177], 100%.

The data set is the same for the next values; noted with them: Triticum aestivum, 192 h, Table 21, read-out: Biological activity in greenhouse, wheat powdery mildew.
With `COC(=O)c1ccccc1NC(=O)C(C)Cl` (centres unmarked) [VI-56], the pest or weed control at 400 ppm is 0%.
Regarding `Cc1nn(C)c(C(=O)NCc2ccc(O)cc2)c1Cl` [VIII-1], the pest or weed control at 400 ppm amounted to 0%.
Still for that read-out and setting: with `CNC(=O)c1ccccc1NC(=O)C(C)Cl` (centres unmarked) [VI-54] the figure was 0%; with `CNC(=O)c1ccccc1NC(=O)CCl` [VI-1, 2-(2-chloroacetamido)-N-methylbenzamide], 0%.
Take `COC(=O)c1ccccc1NC(=O)CCl` [VI-20]: the pest or weed control at 400 ppm came to 0%.
The same measure, in the same setting: to `CNC(=O)c1ccccc1NC(=O)COc1ccc(CN)cc1` [II-1, 2-(2-(4-(aminomethyl)phenoxy)acetamido)-N-methylbenzamide] belongs 100%; to `Cc1nn(C)c(C(=O)NCCc2ccc(O)cc2)c1Cl` [VIII-138], 0%.
Same read-out and setting: with `CCc1nn(C)c(C(=O)NCCc2ccc(O)cc2)c1Cl` [VIII-139] the figure was 0%.

System in a further data set: not given
Assay: not given
Details: not given
The melting point is the temperature of the solid-liquid transition. Consider `COC(=O)c1ccccc1NC(=O)C(C)Cl` (centres unmarked) [VI-56], for which the melting point lay within 63 to 65 °C.
Still for that read-out and setting: to `CCc1nn(C)c(C(=O)NCc2ccc(OCC(=O)Nc3ccccc3C(=O)NC)cc2)c1Cl` [Compound 16] belongs 160 to 161 °C; to `CNC(=O)c1ccccc1NC(=O)C(C)Cl` (centres unmarked) [VI-54], 121 to 122 °C; to `CNC(=O)c1ccccc1NC(=O)CCl` [VI-1, 2-(2-chloroacetamido)-N-methylbenzamide], 155 to 157 °C.
The same measure, in the same setting: to `COC(=O)c1ccccc1NC(=O)CCl` [VI-20] belongs 92 to 94 °C; to `CNC(=O)c1ccccc1NC(=O)COc1ccc(CN)cc1` [II-1, 2-(2-(4-(aminomethyl)phenoxy)acetamido)-N-methylbenzamide], 109 to 110 °C.
